Format in all cases: in vivo
In assay [1] the test system is Cyperus iria. Kind of assay: Indoor herbicide activity determination, post-emergence (stem and leaf spray at 2-4 leaf stage). The note with it: 504 h, determined 21 days later, read-out: Inhibition rate of fresh weight, Cyperus iria; for inhibition at 30 g/ha: 30 g a.i./ha; for inhibition at 60 g/ha: 60 g a.i./ha. The essentials: (§1)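 Potted weeds in sandy nutrient soil (pH 6.1, 1% organic matter) were grown in a constant-temperature illuminated room to the 2-4 leaf stage, then given a stem-and-leaf spray. Plants went back to the culture room once the spray had dried in shade. At 21 days, fresh weight inhibition % was calculated relative to untreated control plants.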

Assay [2] concerns Digitaria sanguinalis. The assay is described as above. The note with it: 504 h, determined 21 days later, read-out: Inhibition rate of fresh weight, Digitaria sanguinalis; for inhibition at 30 g/ha: 30 g a.i./ha; for inhibition at 60 g/ha: 60 g a.i./ha. The essentials:
as §1

Assay [3] concerns Eclipta prostrata. The assay is described as above. The note with it: 504 h, determined 21 days later, read-out: Inhibition rate of fresh weight, Eclipta prostrata; for inhibition at 30 g/ha: 30 g a.i./ha; for inhibition at 60 g/ha: 60 g a.i./ha. In a few lines: as §1
For assay [4], the system named is Aegilops tauschii. Kind of assay: Indoor herbicide activity determination, Seed Treatment; pre-emergence (soil spray). The note with it: read-out: Herbicidal activities (inhibition rate) Aegilops tauschii; for inhibition at 60 g/ha: 60 g a.i./ha; for inhibition at 120 g/ha: 120 g a.i./ha. The essentials:
(§2)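 Weed seeds sown in 7 cm pots of sandy nutrient soil (pH 6.1, 1% organic matter), kept 24 h in a constant-temperature lit room, then soil sprayed by traveling spray tower (flow 390 mL/min). Fresh-weight inhibition % versus untreated controls scored 21 days later.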

The subject of assay [5] is Cyperus iria. The assay is described as above. The note with it: read-out: Herbicidal activities (inhibition rate) Cyperus iria; for inhibition at 60 g/ha: 60 g a.i./ha; for inhibition at 120 g/ha: 120 g a.i./ha. The essentials: as §2
Assay [6] concerns Digitaria sanguinalis. Described as above. The note with it: read-out: Herbicidal activities (inhibition rate) Digitaria sanguinalis; for inhibition at 60 g/ha: 60 g a.i./ha. In a few lines: as §2
Assay [7] deals with Eclipta prostrata. The description is as above. The note with it: read-out: Herbicidal activities (inhibition rate) Eclipta prostrata; for inhibition at 60 g/ha: 60 g a.i./ha. In a few lines:
as §2

The test system of assay [8] is Alopecurus japonicus. The assay is described as above. The essentials: as §2
The test system of assay [9] is Alopecurus myosuroides. The assay is described as above. In a few lines: as §2
Assay [10] deals with Eleusine indica. The assay is described as above. In a few lines:
as §2

For assay [11], the system named is Leptochloa chinensis. The description is as above. The essentials:
as §2

Assay [12] has as its system Lolium multiflorum. The assay is described as above. In a few lines:
as §2

In the case of `COC(=O)[C@@H]1CC[C@H](NC(=O)[C@@]2(C(F)(F)F)CC(c3cc(F)cc(F)c3)=NO2)C1` [CK3, reference compound], the results for the inhibition at 30 g/ha in assay [1], in assay [2] and in assay [3] were 40 to 60%, 40 to 60% and < 20%, respectively. In addition, the inhibition at 60 g/ha in assay [4] lay within 40 to 60%; in [5], 40 to 60%; in [6] it was 60 to 80%; in [7], 60 to 80%.

Consider `C=C[C@]1(C(=O)N[C@H]2C[C@@H](C(=O)OC)C2)CC(c2cc(F)cc(F)c2)=NO1` [I-4], for which the figures for the inhibition at 30 g/ha in assay [1], in assay [2] and in assay [3] were 80 to 100%, 80 to 100% and 60 to 80%, respectively. In addition, in assay [8] (Dosage 120 g a.i./ha), the “Herbicidal activities, Alopecurus japonicus (inhibition rate class)” value is on record as “A (A indicates that the inhibition rate was greater than or equal to 80% to 100%)”. Also, in [9] (Dosage 120 g a.i./ha), the “Herbicidal activities, Alopecurus myosuroides (inhibition rate class)” value is “A (A indicates that the inhibition rate was greater than or equal to 80% to 100%)”. Besides, the inhibition at 60 g/ha in assay [5], in assay [6] and in assay [7] was 80 to 100% throughout. Also, the “Herbicidal activities, Eleusine indica (inhibition rate class)” value in assay [10] (Dosage 120 g a.i./ha) was “A (A indicates that the inhibition rate was greater than or equal to 80% to 100%)”. For the same compound, in assay [11] (Dosage 120 g a.i./ha), the “Herbicidal activities, Leptochloa chinensis (inhibition rate class)” value is reported as “A (A indicates that the inhibition rate was greater than or equal to 80% to 100%)”. Moreover, in assay [12] (Dosage 120 g a.i./ha), the “Herbicidal activities, Lolium multiflorum (inhibition rate class)” value is recorded as “A (A indicates that the inhibition rate was greater than or equal to 80% to 100%)”.

On to `O=C(O)[C@@H]1CC[C@H](NC(=O)[C@@]2(C(F)(F)F)CC(c3cc(F)cc(F)c3)=NO2)C1` [CK5, reference compound], for which the results for the inhibition at 30 g/ha in assay [1], in [2] and in assay [3] were 40 to 60%, 40 to 60% and < 20%, respectively. The inhibition at 60 g/ha in [4] fell in the range of 20 to 40%; in assay [5] it was 60 to 80%; in assay [6], 60 to 80%; in assay [7], 40 to 60%.

With `C=C[C@]1(C(=O)N[C@H]2CO[C@@H](C(=O)O)C2)CC(c2cc(F)cc(F)c2)=NO1` [icafolin, reference compound], the inhibition at 30 g/ha in assay [1] was 40 to 60%; in assay [2] it was 40 to 60%; in assay [3] it was < 20%. The inhibition at 60 g/ha in assay [4] was 40 to 60%; in [5], 20 to 40%; in [6], 20 to 40%; in [7], < 20%.

Turning to `C=CC1(C(=O)NC2COC(C(=O)OC)C2)CC(c2cc(F)cc(F)c2)=NO1` (stereo not drawn) [icafolin-methyl, reference compound], the inhibition at 30 g/ha in assay [1], in assay [2] and in assay [3] was 40 to 60% each time. In addition, the inhibition at 60 g/ha in assay [4] lay in the range of 40 to 60%; in assay [5], 20 to 40%; in assay [6], 20 to 40%; in [7] it was 40 to 60%.

As to `O=C(N[C@H]1C[C@@H](C(=O)O)C1)C1(C(F)(F)F)CC(c2cc(F)cc(F)c2)=NO1` (mixture of isomers) [I-206], the inhibition at 60 g/ha in assay [1], in assay [2] and in [3] was 80 to 100% each time. In addition, the inhibition at 120 g/ha lay in the range of 80 to 100% in assay [4], 80 to 100% in assay [5], 80 to 100% in [6] (120 g a.i./ha) and 60 to 80% in assay [7] (120 g a.i./ha). For the same compound, the “Herbicidal activities, Alopecurus japonicus (inhibition rate class)” value in assay [8] (Dosage 240 g a.i./ha) is recorded as “A (A indicates that the inhibition rate was greater than or equal to 80% to 100%)”. In addition, the “Herbicidal activities, Alopecurus myosuroides (inhibition rate class)” value in assay [9] (Dosage 240 g a.i./ha) was “A (A indicates that the inhibition rate was greater than or equal to 80% to 100%)”. In addition, in [10] (Dosage 240 g a.i./ha), the “Herbicidal activities, Eleusine indica (inhibition rate class)” value was “A (A indicates that the inhibition rate was greater than or equal to 80% to 100%)”. For the same compound, the “Herbicidal activities, Leptochloa chinensis (inhibition rate class)” value in assay [11] (Dosage 240 g a.i./ha) is given as “A (A indicates that the inhibition rate was greater than or equal to 80% to 100%)”. The “Herbicidal activities, Lolium multiflorum (inhibition rate class)” value in assay [12] (Dosage 240 g a.i./ha) was “A (A indicates that the inhibition rate was greater than or equal to 80% to 100%)”.

With `COC(=O)[C@H]1CC[C@@H](NC(=O)[C@@]2(C(F)(F)F)CC(c3cc(F)cc(F)c3)=NO2)C1` [CK4, reference compound], the inhibition at 30 g/ha in assay [1] is 20 to 40%; in assay [2] it was 20 to 40%; in [3] it was < 20%. The inhibition at 60 g/ha is < 20% in [4], 40 to 60% in assay [5], < 20% in assay [6] and < 20% in [7].

With `O=C(O)[C@H]1CC[C@@H](NC(=O)[C@@]2(C(F)(F)F)CC(c3cc(F)cc(F)c3)=NO2)C1` [CK6, reference compound], the inhibition at 30 g/ha was 20 to 40% in [1], 20 to 40% in [2] and < 20% in assay [3]. Further, the inhibition at 60 g/ha in assay [4] was < 20%; in assay [5], 40 to 60%; in assay [6], < 20%; in [7], < 20%.

Turning to `C=CC1(C(=O)N[C@H]2C[C@@H](C(=O)O)C2)CC(c2cc(F)cc(F)c2)=NO1` (stereo partly drawn) [I-1], the inhibition at 60 g/ha in [1] lay within 80 to 100%; in assay [2], 80 to 100%; in assay [3], 60 to 80%. The inhibition at 120 g/ha in assay [4] and in [5] was 80 to 100% throughout. For the same compound, the “Herbicidal activities, Alopecurus japonicus (inhibition rate class)” value in [8] (Dosage 240 g a.i./ha) was “A (A indicates that the inhibition rate was greater than or equal to 80% to 100%)”. In addition, the “Herbicidal activities, Alopecurus myosuroides (inhibition rate class)” value in assay [9] (Dosage 240 g a.i./ha) is reported as “A (A indicates that the inhibition rate was greater than or equal to 80% to 100%)”. In addition, the “Herbicidal activities, Eleusine indica (inhibition rate class)” value in assay [10] (Dosage 240 g a.i./ha) is “A (A indicates that the inhibition rate was greater than or equal to 80% to 100%)”. Further, the “Herbicidal activities, Leptochloa chinensis (inhibition rate class)” value in assay [11] (Dosage 240 g a.i./ha) is on record as “A (A indicates that the inhibition rate was greater than or equal to 80% to 100%)”. In addition, the “Herbicidal activities, Lolium multiflorum (inhibition rate class)” value in assay [12] (Dosage 240 g a.i./ha) was “A (A indicates that the inhibition rate was greater than or equal to 80% to 100%)”.

For the compound `C=C[C@]1(C(=O)N[C@H]2C[C@@H](C(=O)OCC)C2)CC(c2cc(F)cc(F)c2)=NO1` [I-5], the inhibition at 30 g/ha fell in the range of 80 to 100% in [1], 80 to 100% in assay [2] and 40 to 60% in [3]. Further, the inhibition at 60 g/ha in assay [4] lay in the range of 80 to 100%; in assay [5], 60 to 80%; in assay [6], 80 to 100%. Moreover, the “Herbicidal activities, Alopecurus japonicus (inhibition rate class)” value in [8] (Dosage 120 g a.i./ha) is “A (A indicates that the inhibition rate was greater than or equal to 80% to 100%)”. Moreover, the “Herbicidal activities, Alopecurus myosuroides (inhibition rate class)” value in [9] (Dosage 120 g a.i./ha) is listed as “A (A indicates that the inhibition rate was greater than or equal to 80% to 100%)”. Moreover, in assay [10] (Dosage 120 g a.i./ha), the “Herbicidal activities, Eleusine indica (inhibition rate class)” value is “A (A indicates that the inhibition rate was greater than or equal to 80% to 100%)”. In addition, the “Herbicidal activities, Leptochloa chinensis (inhibition rate class)” value in assay [11] (Dosage 120 g a.i./ha) is given as “A (A indicates that the inhibition rate was greater than or equal to 80% to 100%)”. Besides, in assay [12] (Dosage 120 g a.i./ha), the “Herbicidal activities, Lolium multiflorum (inhibition rate class)” value was “A (A indicates that the inhibition rate was greater than or equal to 80% to 100%)”.

Regarding `C=C[C@]1(C(=O)N[C@H]2C=C[C@@H](C(=O)OCC(C)C)C2)CC(c2cc(F)cc(C(F)(F)F)c2)=NO1` [I-438], the inhibition at 30 g/ha in [1], in [2] and in assay [3] was 60 to 80% throughout. Further, the inhibition at 60 g/ha in assay [5] and in assay [7] was 80 to 100% throughout. Further, in assay [10] (Dosage 120 g a.i./ha), the “Herbicidal activities, Eleusine indica (inhibition rate class)” value is given as “A (A indicates that the inhibition rate was greater than or equal to 80% to 100%)”. Also, the “Herbicidal activities, Leptochloa chinensis (inhibition rate class)” value in [11] (Dosage 120 g a.i./ha) is given as “A (A indicates that the inhibition rate was greater than or equal to 80% to 100%)”.
